In assay [1] the test system is isolated strains from food production environments. The assay is classed as cell-based. The text has this: In the early stages of these investigations, efforts were concentrated on two zoonotic pathogens namely verocytoxigenic Escherichia coli O157 and Salmonella species, along with the recently described powdered infant formula pathogen Cronobacter species. […] Some of the genera appeared to be more susceptible compared with others, as in the case of Cronobacter. Attempts to develop tolerant phenotypes were marginally successful and where this was generated, the phenotype was unstable. […] Highly-tolerant mutant phenotypes were obtained and these are currently being studied in detail, using a dedicated technical pipeline, described above. It was decided that it would be of interest to include the food-borne zoonotic pathogen Campylobacter and to evaluate its susceptibility/tolerance to the same panel compounds. Once again, it could be shown that Campylobacter was susceptible. However, as the panel of compounds used could be described as synthetic, the availability of C-Activ-12 presented the opportunity to re-evaluate the responses of these bacteria to this natural biocide. […] In the current project proposal, this inhibitory effect will be characterised in detail, to provide a means of understanding the mode of action. […] C-Activ-12 is a novel natural biocide. The formulation ingredients are FDA GRAS approved comprising organic acids and natural fruit extracted polyphenols. The broad spectrum activity of the formulation resulted it its inclusion in a University College Dublin Government funded independent study under the FIRM (see hereunder) research program. The program studies the effectiveness of products used to manage micro-organisms/pathogens prevalent in the food sector, comparing effectiveness & testing against isolated strains. […] The Irish Department of Agriculture and Food's Food Institutional Research Measure (FIRM) is funded under the National Development Plan 2007-2013. FIRM is the primary national funding mechanism for food research in third level colleges and research institutes. FIRM is a public good competitive programme whereby multi-disciplinary teams from two or more institutions usually carry out the research projects. Research outputs are communicated to industry by a dedicated dissemination team known as RELAY. FIRM aims to develop public good technologies that will underpin a competitive, innovative and sustainable food manufacturing and marketing sector. The programme is creating a base of knowledge and expertise in generic technologies that will support a modern, consumer-focused industry and build Ireland's capacity for R&D. A key output of the FIRM is highly trained young researchers at PhD and postdoctoral level, with specialist skills particularly relevant to the Irish food sector. The following pages provide an overview of the effectiveness of CeBeC's C-Activ-12 in killing micro-organisms. Standard testing protocols were first applied by AIT CBBR under British & European Food Grade Sanitiser Standard BS EN 1276, requiring a log 5 reduction from a log 7 to a log 2. The activity of C-Activ-12 highlighted a greater than log 6 reduction from a log 8. Based on the results under BS EN 1276, UCD added the product under the FIRM study whereby pathogens were isolated from food production environments. The rationale behind this approach is that most standards rely on ATCC & NCTC cultures which are more than often easier to kill than isolates.

Assay [2] deals with Escherichia coli ATCC 25922. The experiment in a line: Preliminary evaluation of bactericidal efficacy (5 min treatment, colony counts). Type of assay: cell-based. Further details: key: TNTC=To Numerous To Count. The note with it: 5 min exposure to 0.5% v/v. The method, then:
The compositions are suitable for use in the food and food processing industry. For rapid screening, a preliminary method allowed selection of the most efficient formulations. […] The composition of each formulation (0.5% v/v) was used blind to ensure no bias. The formulation was reviewed after each set of tests to improve the products composition and efficiency. Prototype formulations were prepared under aseptic conditions.
Typically, an overnight culture of bacteria strains were diluted 1:1000 in sterile hard water to a final density of approx 1×10^6 bacteria. A 1 ml volume of bacteria was treated for 5 minutes at room temperature with 500 μl of antimicrobial solutions. […] The treatment was ceased by the addition of 200 μl of the neutralising solution. All strains were serially diluted to 10^−5 in sterile peptone water and 100 μl were plated in duplicate on the appropriate plate and then incubated at 37° C. for 24 hours except Campylobacter jejuni and Enterococcus hirae. The appropriate controls were included in each test e.g. an unopened agar plate and a set of serially diluted, untreated bacteria. After mesophilic aerobic incubation (or mesophilic microaerophilic incubation for C. jejuni), the number of colonies was enumerated and compared to the untreated controls to determine if a Log order reduction was obtained.

[3] abbreviates: 74 strains, unheaded column beside Stdev (presumably mean).

≈ marks a conversion by molar mass, not a printed value. Where two headings read alike, the source gives them in different places.

With `O=C(O)c1ccccc1` [Benzoic Acid], in assay [1], the MBC amounted to 920.79 µg/mL (≈ 7540 µM), the “MBC Range” value fell in the range of 165 to 1320 µg/mL, the MIC was determined as 810.51 µg/mL (≈ 6640 µM) and the “MIC Range” value fell in the range of 247.5 to 1320 µg/mL.

In assay [1] (setting [3]), `O=C(O)/C=C/c1ccccc1` [Cininamic Acid] displayed an MBC of 119.40 µg/mL (≈ 806 µM) and an MIC of 95.12 µg/mL (≈ 642 µM). In assay [1] (range over 74 strains), the “MBC Range” value is 23.44 to 421.88 µg/mL and the “MIC Range” value fell in the range of 23.44 to 140.65 µg/mL.

Take `O=C(O)CC(O)C(=O)O` (stereo not shown) [E3, MALIC ACID]: in assay [2], the “E. coli bacterial colony counts (average of two replicates), Bacterial Dilution 10^−1” value was “TNTC”; the “E. coli bacterial colony counts (average of two replicates), Bacterial Dilution 10^−2” value is “TNTC”; the “E. coli bacterial colony counts (average of two replicates), Bacterial Dilution 10^−3” value is reported as “TNTC”; the “E. coli bacterial colony counts (average of two replicates), Bacterial Dilution 10^−4” value is reported as “TNTC”. For the same compound, in assay [2], the “E. coli bacterial colony counts (average of two replicates), Bacterial Dilution 10^−5” value was over 61 and the “E. coli bacterial colony counts (average of two replicates), Bacterial Dilution Neat” value was “TNTC”.

In the case of `O=C(O)CC(O)(CC(=O)O)C(=O)O` [E4, CITRIC ACID], in assay [2], the “E. coli bacterial colony counts (average of two replicates), Bacterial Dilution 10^−1” value is reported as “TNTC”; the “E. coli bacterial colony counts (average of two replicates), Bacterial Dilution 10^−2” value is “TNTC”; the “E. coli bacterial colony counts (average of two replicates), Bacterial Dilution 10^−3” value is recorded as over 159; the “E. coli bacterial colony counts (average of two replicates), Bacterial Dilution 10^−4” value is recorded as “TNTC”. For the same compound, in assay [2], the “E. coli bacterial colony counts (average of two replicates), Bacterial Dilution 10^−5” value is 10 and the “E. coli bacterial colony counts (average of two replicates), Bacterial Dilution Neat” value was “TNTC”.

As for `O=C1O[C@H]([C@@H](O)CO)C(O)=C1O` [E5, ASCORBIC ACID], in assay [2], the “E. coli bacterial colony counts (average of two replicates), Bacterial Dilution 10^−1” value was “TNTC”; the “E. coli bacterial colony counts (average of two replicates), Bacterial Dilution 10^−2” value is reported as “TNTC”; the “E. coli bacterial colony counts (average of two replicates), Bacterial Dilution 10^−3” value is recorded as “TNTC”; the “E. coli bacterial colony counts (average of two replicates), Bacterial Dilution 10^−4” value was “TNTC”. In assay [2], the “E. coli bacterial colony counts (average of two replicates), Bacterial Dilution 10^−5” value is listed as “TNTC” and the “E. coli bacterial colony counts (average of two replicates), Bacterial Dilution Neat” value is recorded as “TNTC”.

In assay [1] (setting [3]), `C=CCc1ccc(O)c(OC)c1` [Eugenol] yielded an MBC of 0.99 ul/ml and an MIC of 0.86 ul/ml. For the same compound, in assay [1] (range over 74 strains), the “MBC Range” value is 0.25-2 ul/ml and the “MIC Range” value was 0.25-2 ul/ml.

Consider `CC(C)=CCC/C(C)=C/CO` [Geraniol], for which, in assay [1] (setting [3]), the MBC was found to be 9.46 ul/ml and the MIC is reported as 8.29 ul/ml. In assay [1] (range over 74 strains), the “MBC Range” value is 0.94-22.5 ul/ml and the “MIC Range” value is given as 0.94-15^ ul/ml.

In assay [1] (setting [3]), `Cc1ccc(C(C)C)c(O)c1` [Thymol] showed an MBC of 121.38 µg/mL (≈ 808 µM) and an MIC of 85.73 µg/mL (≈ 571 µM). Moreover, in assay [1] (range over 74 strains), the “MBC Range” value was in the range of 4.92 to 315 µg/mL and the “MIC Range” value is listed as 19.69-315^ ug/ml.

In assay [1] (setting [3]), `O=C/C=C/c1ccccc1` [Trans-cinnaldeheyde] gave an MBC of 0.50 ul/ml and an MIC of 0.43 ul/ml. In assay [1] (range over 74 strains), the “MBC Range” value is 0.05-0.8 ul/ml and the “MIC Range” value is 0.2-0.8 ul/ml.

In assay [1] (setting [3]), `CC1=CC[C@@H](C(C)(C)O)CC1` [a-Terpineol] gave an MBC of 2.84 ul/ml and an MIC of 2.43 ul/ml. Besides, in assay [1] (range over 74 strains), the “MBC Range” value was 0.42-7.59 ul/ml and the “MIC Range” value is listed as 0.53-7.59 ul/ml.
